Calls of active or inactive are those of the source. The rule behind the calls is not given here.
How the values were obtained:
[1] = DPPH radical solution, 30 min
Description: Antioxidant activity assessed as DPPH radical scavenging activity incubated in dark for 30 mins by spectrophotometry

Cholinesterase [2] = molecular target: Cholinesterase (Equus caballus, UniProt P81908); test: Inhibition of equine serum butyrylcholinesterase preincubated for 5 mins followed by addition of S-butyrylthiocholine iodide as substrate measured after 60 to 120 mins by Ellmans method
[3] = Selectivity index, ratio of IC50 for equine serum butyrylcholinesterase to IC50 for electric eel acetylcholinesterase
[4] = Cytotoxicity against […] PC12 cells assessed as cell viability at 20 uM after 24 hrs by MTT assay; type: cell-based; conditions: rat, pc-12, 24 h
Acetylcholinesterase [5] = molecular target: Acetylcholinesterase (Electrophorus electricus, UniProt O42275); test: Inhibition of electric eel acetylcholinesterase preincubated for 5 mins followed by addition of acetylthiocholine iodide as substrate measured after 60 to 120 mins by Ellmans method
Sequence of Acetylcholinesterase (Electrophorus electricus, UniProt O42275) (O42275 whole entry): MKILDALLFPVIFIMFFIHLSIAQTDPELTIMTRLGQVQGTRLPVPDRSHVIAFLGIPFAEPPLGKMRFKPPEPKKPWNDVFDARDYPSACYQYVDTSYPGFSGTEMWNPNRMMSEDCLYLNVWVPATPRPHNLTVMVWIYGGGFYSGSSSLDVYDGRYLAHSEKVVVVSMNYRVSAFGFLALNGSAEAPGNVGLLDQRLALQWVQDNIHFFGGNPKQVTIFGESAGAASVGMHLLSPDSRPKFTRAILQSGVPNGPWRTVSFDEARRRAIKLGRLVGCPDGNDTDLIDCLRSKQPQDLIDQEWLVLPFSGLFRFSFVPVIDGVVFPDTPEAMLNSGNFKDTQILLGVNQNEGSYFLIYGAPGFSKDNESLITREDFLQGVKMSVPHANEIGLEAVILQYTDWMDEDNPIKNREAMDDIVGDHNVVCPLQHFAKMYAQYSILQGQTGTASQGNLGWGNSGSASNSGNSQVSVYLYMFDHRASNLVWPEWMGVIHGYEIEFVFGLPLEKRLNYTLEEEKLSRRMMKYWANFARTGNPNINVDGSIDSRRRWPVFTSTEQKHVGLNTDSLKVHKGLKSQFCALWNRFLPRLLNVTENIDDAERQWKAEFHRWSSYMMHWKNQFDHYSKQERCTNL

in vitro = conditions: PAMPA
Acetylcholinesterase [6] = molecular target: Acetylcholinesterase (Homo sapiens, UniProt P22303); test: Inhibition of human erythrocytes acetylcholinesterase preincubated for 5 mins followed by addition of acetylthiocholine iodide as substrate measured after 60 to 120 mins by Ellmans method
Sequence of Acetylcholinesterase (Homo sapiens, UniProt P22303) (P22303 whole entry): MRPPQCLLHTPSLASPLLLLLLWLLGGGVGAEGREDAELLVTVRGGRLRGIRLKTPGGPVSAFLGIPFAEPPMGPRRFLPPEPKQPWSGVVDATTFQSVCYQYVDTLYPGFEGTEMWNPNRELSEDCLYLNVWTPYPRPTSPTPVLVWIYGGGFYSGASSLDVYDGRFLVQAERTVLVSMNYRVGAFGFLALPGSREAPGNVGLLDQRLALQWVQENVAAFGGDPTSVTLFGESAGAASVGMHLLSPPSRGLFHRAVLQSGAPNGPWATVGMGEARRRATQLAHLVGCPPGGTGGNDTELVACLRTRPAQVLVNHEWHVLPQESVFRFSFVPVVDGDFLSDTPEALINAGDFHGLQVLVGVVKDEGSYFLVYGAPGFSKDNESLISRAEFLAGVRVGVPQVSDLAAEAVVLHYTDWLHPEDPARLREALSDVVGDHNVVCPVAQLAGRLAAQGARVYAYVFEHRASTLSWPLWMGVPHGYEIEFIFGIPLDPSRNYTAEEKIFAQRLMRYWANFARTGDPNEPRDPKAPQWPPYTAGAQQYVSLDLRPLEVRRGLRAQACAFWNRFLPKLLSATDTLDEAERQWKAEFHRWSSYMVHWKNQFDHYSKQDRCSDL

PC-12 = test: Neuroprotective activity against H2O2 induced damage in […] PC12 cells assessed as cell viability at 1 to 10 uM preincubated for 4 hrs followed by H2O2 challenge for 20 hrs by MTT assay; type: functional, cell-based; conditions: Rattus norvegicus
Homo sapiens = organism: Homo sapiens; test: Selectivity index, ratio of IC50 for human serum butyrylcholinesterase to IC50 for human erythrocytes acetylcholinesterase
Cholinesterase [7] = molecular target: Cholinesterase (Homo sapiens, UniProt P06276); test: Inhibition of human serum butyrylcholinesterase preincubated for 5 mins followed by addition of S-butyrylthiocholine iodide as substrate measured after 60 to 120 mins by Ellmans method
Sequence of Cholinesterase (Homo sapiens, UniProt P06276) (P06276 whole entry): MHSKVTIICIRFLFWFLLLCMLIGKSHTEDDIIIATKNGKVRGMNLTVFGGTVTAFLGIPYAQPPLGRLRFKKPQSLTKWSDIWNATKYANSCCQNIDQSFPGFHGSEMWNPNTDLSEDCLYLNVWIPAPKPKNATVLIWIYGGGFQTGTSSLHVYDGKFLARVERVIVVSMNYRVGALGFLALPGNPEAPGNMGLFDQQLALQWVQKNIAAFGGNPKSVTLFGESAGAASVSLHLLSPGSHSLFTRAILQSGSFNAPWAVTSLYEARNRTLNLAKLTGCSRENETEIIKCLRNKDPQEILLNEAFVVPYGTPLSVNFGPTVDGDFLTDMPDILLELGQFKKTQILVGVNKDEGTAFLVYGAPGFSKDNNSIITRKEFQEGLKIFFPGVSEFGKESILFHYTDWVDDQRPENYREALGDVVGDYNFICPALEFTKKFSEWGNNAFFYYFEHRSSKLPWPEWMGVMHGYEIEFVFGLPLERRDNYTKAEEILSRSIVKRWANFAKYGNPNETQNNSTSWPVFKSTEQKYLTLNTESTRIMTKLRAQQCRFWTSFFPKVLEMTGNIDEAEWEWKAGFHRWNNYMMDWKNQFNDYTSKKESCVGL

[8] = Antioxidant activity assessed as DPPH radical scavenging activity at 1000 uM incubated in dark for 30 mins by spectrophotometry; type: physicochemical; conditions: 0.5 h
[9] = molecular target: Cholinesterase (Equus caballus) (UniProt P81908); test: Inhibition of equine serum butyrylcholinesterase at 1000 uM preincubated for 5 mins followed by addition of S-butyrylthiocholine iodide as substrate measured after 60 to 120 mins by Ellmans method
Sequence of Cholinesterase (Equus caballus) (P81908 whole entry): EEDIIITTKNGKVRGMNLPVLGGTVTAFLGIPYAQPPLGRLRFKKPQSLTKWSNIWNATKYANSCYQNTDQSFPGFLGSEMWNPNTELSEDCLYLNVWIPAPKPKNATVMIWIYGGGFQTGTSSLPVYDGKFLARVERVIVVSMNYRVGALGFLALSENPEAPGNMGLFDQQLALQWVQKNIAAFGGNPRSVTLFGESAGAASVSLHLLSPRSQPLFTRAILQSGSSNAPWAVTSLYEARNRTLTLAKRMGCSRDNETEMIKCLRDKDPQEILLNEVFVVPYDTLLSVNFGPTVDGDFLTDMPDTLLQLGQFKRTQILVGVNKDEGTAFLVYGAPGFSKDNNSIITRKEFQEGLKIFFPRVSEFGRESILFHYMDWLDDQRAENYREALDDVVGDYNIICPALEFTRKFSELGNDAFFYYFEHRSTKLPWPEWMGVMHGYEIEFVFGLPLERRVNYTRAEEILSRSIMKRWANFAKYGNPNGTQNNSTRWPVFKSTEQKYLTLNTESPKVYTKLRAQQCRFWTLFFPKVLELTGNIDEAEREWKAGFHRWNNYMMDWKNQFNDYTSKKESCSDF

Sequence of Cholinesterase (Equus caballus, UniProt P81908) (P81908 whole entry): as above

SMILES | IC50 [1] [nM] | IC50 (Cholinesterase [2]) [nM] | Ratio IC50 [3] | Activity [4] | IC50 (Acetylcholinesterase [5]) [nM] | Papp at 16 h, 5 mg/mL (in vitro) [×10⁻⁶ cm/s] | IC50 (Acetylcholinesterase [6]) [nM] | Activity (PC-12) | Ratio IC50 (Homo sapiens) | IC50 (Cholinesterase [7]) [nM] | inhibition (INH) [8] | inhibition [9]
COc1cc(/C=C/C(=O)CC(=O)NCCC2CCN(Cc3ccccc3)CC2)ccc1O | 76800 | 1080 | 0.415 | Non-toxic | 2600 | – | – | – | – | – | – | –
COc1cc(/C=C/C(=O)NCCC2CCN(Cc3ccccc3)CC2)ccc1O | 34100 | 1220 | 1.87 | Non-toxic | 651 | 5.16 | 729 | Active | 1.54 | 1120 | – | –
COc1ccc(/C=C/C(=O)NCCC2CCN(Cc3ccccc3)CC2)cc1O | 764000 | 2470 | 2.33 | Non-toxic | 1060 | – | 1660 | – | 1.95 | 3240 | – | –
O=C(/C=C/c1ccc(Cl)cc1)NCCC1CCN(Cc2ccccc2)CC1 | – | 2770 | 5.32 | Toxic | 521 | – | 362 | – | 5.72 | 2070 | Not Active | –
O=C(/C=C/c1ccc(O)cc1)NC1CCN(Cc2ccccc2)CC1 | 980000 | 146000 | 2.06 | Non-toxic | 70800 | – | – | – | – | – | – | –
COc1cc(/C=C/C(=O)NC2CCN(Cc3ccccc3)CC2)ccc1O | 32500 | 49200 | 1.68 | Non-toxic | 29300 | – | – | – | – | – | – | –
O=C(/C=C/c1ccc(Cl)cc1)NC1CCN(Cc2ccccc2)CC1 | – | 51400 | 0.759 | Non-toxic | 67700 | – | – | – | – | – | Not Active | –
Cc1c(C)c2c(c(C)c1O)CCC(C)(C(=O)O)O2 (configuration not stated) | – | – | – | – | – | – | – | Active | – | – | – | –
O=C(/C=C/c1ccc(F)cc1)NCCC1CCN(Cc2ccccc2)CC1 | – | 1980 | 2.43 | Non-toxic | 815 | – | 3300 | – | 2.28 | 7510 | Not Active | –
COc1cc(/C=C/C(=O)NC2CCN(Cc3ccccc3)CC2)ccc1OC(C)=O | – | 17300 | 0.786 | Non-toxic | 22000 | – | – | – | – | – | Not Active | –
O=C(/C=C/c1ccc([N+](=O)[O-])cc1)NC1CCN(Cc2ccccc2)CC1 | – | 9010 | 1.26 | Non-toxic | 7120 | – | – | – | – | – | Not Active | –
COc1cc(/C=C/C(=O)NCCC2CCN(Cc3ccccc3)CC2)ccc1OC(C)=O | – | 670 | 2.31 | Non-toxic | 290 | – | 339 | – | 0.72 | 245 | Not Active | –
O=C(/C=C/c1ccc([N+](=O)[O-])cc1)NCCC1CCN(Cc2ccccc2)CC1 | – | 3100 | 6.98 | Non-toxic | 444 | – | 337 | – | 12.5 | 4230 | Not Active | –
NCCC1CCN(Cc2ccccc2)CC1 | – | – | – | – | 159000 | – | – | – | – | – | – | inactive
COc1cc(/C=C/C(=O)CC(=O)NC2CCN(Cc3ccccc3)CC2)ccc1O | 88700 | 53200 | 1.99 | Non-toxic | 26300 | – | – | – | – | – | – | –
COc1cc(/C=C/C(=O)NCCC2CCN(Cc3ccccc3)CC2)cc(OC)c1OC | – | 416 | 3.2 | Non-toxic | 130 | 7.43 | 234 | – | 2.86 | 669 | Not Active | –
COc1cc(CCC(=O)NCCC2CCN(Cc3ccccc3)CC2)ccc1O | 48300 | 4400 | 0.588 | Non-toxic | 7480 | – | 5320 | Active | 0.054 | 286 | – | –
COc1cc(/C=C/C(=O)NC2CCN(Cc3ccccc3)CC2)cc(OC)c1O | 22300 | 7340 | 0.26 | Non-toxic | 28200 | – | – | – | – | – | – | –
O=C(/C=C/c1ccc(O)c(O)c1)NC1CCN(Cc2ccccc2)CC1 | 10600 | 15000 | 0.241 | Non-toxic | 62100 | – | – | Active | – | – | – | –
COc1ccc(/C=C/C(=O)NCCC2CCN(Cc3ccccc3)CC2)cc1OC | – | 1550 | 5.43 | Non-toxic | 285 | – | 526 | – | 4.83 | 2540 | Not Active | –
COc1cc(CCC(=O)NC2CCN(Cc3ccccc3)CC2)ccc1O | 55100 | 31900 | 0.949 | Non-toxic | 33600 | – | – | – | – | – | – | –
O=C(/C=C/c1ccccc1O)NCCC1CCN(Cc2ccccc2)CC1 | 977000 | 1060 | 0.491 | Non-toxic | 2160 | – | 2680 | – | 0.37 | 988 | – | –
O=C(/C=C/c1ccc(O)cc1)CC(=O)NC1CCN(Cc2ccccc2)CC1 | 890000 | 3100 | 0.053 | Non-toxic | 58300 | – | – | – | – | – | – | –
O=C(/C=C/c1ccc(O)cc1)NCCC1CCN(Cc2ccccc2)CC1 | 936000 | 1240 | 1.42 | Non-toxic | 874 | – | 2200 | – | 0.36 | 784 | – | –
O=C(/C=C/c1ccc(F)cc1)NC1CCN(Cc2ccccc2)CC1 | – | 90800 | 1.53 | Non-toxic | 59300 | – | – | – | – | – | Not Active | –
O=C(/C=C/c1ccccc1)NCCC1CCN(Cc2ccccc2)CC1 | – | 390 | 0.718 | Non-toxic | 543 | – | 411 | – | 3.43 | 1410 | Not Active | –
COc1cccc(/C=C/C(=O)NCCC2CCN(Cc3ccccc3)CC2)c1 | – | 244 | 0.642 | Non-toxic | 383 | – | 690 | – | 2.09 | 1440 | Not Active | –
COc1cc(/C=C/C(=O)NC2CCN(Cc3ccccc3)CC2)cc(OC)c1OC | – | 1250 | 0.038 | Non-toxic | 31600 | – | – | – | – | – | Not Active | –

— ChEMBL document CHEMBL3817754, “Synthesis and evaluation of donepezilferulic acid hybrids as multi-target-directed ligands against Alzheimer's disease” (Medchemcomm, 2016)
